Literature values, collected in patent publication US20040115181A1, “Composition for transmucosal adminstration containing conenzyme q as the active ingredient” (priority 2001, published 2004).

Test system: rats
Conditions: continuously administered for 52 weeks, 1.2 g/kg/day, J. Agric. Food Chem., 1999, Vol. 47, P3756-3763

## COC1=C(OC)C(=O)C(C/C=C(\C)CC/C=C(\C)CC/C=C(\C)CC/C=C(\C)CC/C=C(\C)CC/C=C(\C)CC/C=C(\C)CC/C=C(\C)CC/C=C(\C)CCC=C(C)C)=C(C)C1=O [coenzyme Q10]
  Toxicity in safety test: no toxicity is observed
